The record followed here is patent US9073876B2, “Flap modulators” (JANSSEN PHARMACEUTICA NV, priority 2013, dated 2015).

In test [1] the test system is leukotriene pathway in human whole blood (LTB4 levels). In words: Human whole blood assay (LTB4). Type of test: cell-based. Particulars: human whole blood diluted 1:1 in RPMI, stimulated with calcium ionophore A23187; single replicate. As for the experimental part:
(§1) The ability of the compounds of the present invention to treat a FLAP-mediated disease and/or disorder, or associated symptoms or complications thereof, was determined using the following procedures. Binding assay data represent the average value obtained from two different assay plates, with samples run in duplicate on each plate. Human whole blood assay data represent a single replicate on an assay plate using whole blood from at least one healthy donor.
An in vitro cellular assay was performed using human whole blood collected in heparin-containing tubes, which was used to test the ability of compounds to modulate the leukotriene pathway in human whole blood. The blood was diluted 1:1 in RPMI medium, pre-incubated for 15 min at 37° Celsius with test compounds at various concentrations, and then stimulated with calcium ionophore, A23187 (7 μg/mL), for 30 min at 37° Celsius. The samples were then centrifuged and plasma was removed. The plasma was diluted in assay buffer and LTB4 levels were measured using a commercial kit (Enzo Life Sciences). The concentration of each compound that was required for half-maximal inhibition (modulation) of recombinant enzyme activity (IC50) was calculated by a 4-parameter equation using the program GraphPad Prism (GraphPad software).

The target of another test is human FLAP (Homo sapiens (Human), UniProt P20292). Briefly: FLAP binding assay (HTRF). Particulars: human FLAP-containing membranes, HTRF format; average of two assay plates, duplicates; read-out: FLAP Binding wild type HTRF Ki. As for the experimental part:
as §1
Data are expressed as a HTRF ratio.
A general note: Time-resolved FRET reads energy transfer from a long-lived donor to a nearby acceptor.

For orientation: IC50 means the concentration that inhibits the measured activity by half. Usually Ki stands for a dissociation constant, usually derived from enzyme kinetics or from competition with a known ligand.

Counter-ions that a name gives are not always drawn.

human FLAP, sequence (P20292 whole entry): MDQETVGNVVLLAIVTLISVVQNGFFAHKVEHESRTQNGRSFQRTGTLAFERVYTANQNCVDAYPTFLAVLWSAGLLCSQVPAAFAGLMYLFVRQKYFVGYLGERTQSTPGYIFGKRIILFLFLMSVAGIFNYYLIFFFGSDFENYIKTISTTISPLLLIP

For `Nc1cnc(-c2ccc(C3CCC3)c(OCC(O)Cn3cnccc3=O)c2F)cn1` (racemic) [Example 52, racemic 3-(3-(3-(5-Aminopyrazin-2-yl)-6-cyclobutyl-2-fluorophenoxy)-2-hydroxypropyl)pyrimidin-4(3H)-one], the IC50 in test [1] was found to be 680 nM. The Ki at human FLAP came to 366 nM. In the same order, the values of `Nc1cnc(-c2ccc(C3CCC3)c(OCc3ccccc3)c2F)cn1` [Example 83, 5-[3-(Benzyloxy)-4-cyclobutyl-2-fluorophenyl]-pyrazin-2-amine] are 605 nM and 37 nM.

Take `CC(C)(C)c1ccc(-c2cnc(N)nc2)c(F)c1Oc1cc(N)ncn1` [Example 208, 5-{3-[(6-Aminopyrimidin-4-yl)oxy]-4-tert-butyl-2-fluorophenyl}pyrimidin-2-amine]: in test [1], the IC50 amounted to 215 nM. In addition, on human FLAP, the Ki is 46.5 nM. In the same order, the values of `NC(=O)c1cccc(COc2c(C3CCC3)ccc(-c3cnc4c(c3)OCCN4)c2F)c1` [Example 192, 3-{[6-Cyclobutyl-3-(3,4-dihydro-2H-pyrido[3,2-b][1,4]oxazin-7-yl)-2-fluorophenoxy]-methyl}-benzamide] are 418 nM and 5.3 nM. For `Nc1cnc(-c2ccc(C3CCC3)c(OCC(O)Cn3ccnc3)c2F)cn1` (racemic) [Example 61, racemic 1-(3-(5-Aminopyrazin-2-yl)-6-cyclobutyl-2-fluorophenoxy)-3-(1H-imidazol-1-yl)propan-2-ol], in that order: 697 nM and 262 nM. In the same order, the values of `COC(=O)c1coc(COc2c(C3CCC3)ccc(-c3cnc(N)cn3)c2F)n1` [Example 281, Methyl 2-{[3-(5-aminopyrazin-2-yl)-6-cyclobutyl-2-fluorophenoxy]methyl}-1,3-oxazole-4-carboxylate trifluoroacetic acid salt] are 370 nM and 101 nM. For `N#Cc1ccccc1COc1c(C2CCC2)ccc(-c2cnc(N)cn2)c1F` [Example 18, 2-{[3-(5-Aminopyrazin-2-yl)-6-cyclobutyl-2-fluorophenoxy]methyl}benzonitrile], the IC50 in test [1] came out at 1170 nM. In addition, the Ki on human FLAP was determined as 120 nM.

For the compound `COC(=O)c1ccnc(Oc2c(C3CCC3)ccc(-c3cnc(N)cn3)c2F)n1` [Example 151, methyl 2-[3-(5-aminopyrazin-2-yl)-6-cyclobutyl-2-fluorophenoxy]pyrimidine-4-carboxylate], in test [1], the IC50 stood at 75.4 nM. At human FLAP, the Ki came out at 8.9 nM. Consider `CC(C)c1ccnc(Oc2c(C3CCC3)ccc(-c3cnc(N)cn3)c2F)n1` [Example 90, 5-(4-Cyclobutyl-2-fluoro-3-{[4-(1-methylethyl)pyrimidin-2-yl]oxy}phenyl)pyrazin-2-amine], for which the half-inhibitory concentration (IC50) in test [1] is 53.8 nM.

As to `Nc1cnc(-c2ccc(C3CCC3)c(OCc3cc(Cl)ccc3Cl)c2F)cn1` [Example 38, 5-{4-Cyclobutyl-3-[(2,5-dichlorobenzyl)oxy]-2-fluorophenyl}pyrazin-2-amine], in test [1], the concentration for half-maximal inhibition (IC50) was determined as 736 nM. On the same count and under the same terms, next, `Nc1cnc(-c2ccc(C3CCC3)c(OCc3ccc(F)c(F)c3)c2F)cn1` [Example 33, 5-{4-Cyclobutyl-3-[(3,4-difluorobenzyl)oxy]-2-fluorophenyl}pyrazin-2-amine]: 1410 nM; `Nc1cnc(-c2ccc(C3CCCCC3)c(Oc3ncccn3)c2F)cn1` [Example 320, 5-(4-Cyclohexyl-2-fluoro-3-(pyrimidin-2-yloxy)phenyl)pyrazin-2-amine]: 167 nM. The same measure, in the same setting: the same measure for `CS(=O)(=O)c1cccc(COc2c(C3CCC3)ccc(-c3cnc(N)cn3)c2F)c1` [Example 6, 5-(4-Cyclobutyl-2-fluoro-3-{[3-(methylsulfonyl)benzyl]oxy}phenyl)-pyrazin-2-amine]: 1220 nM; for `CC(C)c1nccc(Oc2c(C3CCC3)ccc(-c3cnc(N)cn3)c2F)n1` [Example 135, 5-(4-Cyclobutyl-2-fluoro-3-{[2-(1-methylethyl)pyrimidin-4-yl]oxy}phenyl)pyrazin-2-amine]: 12.4 nM. Same read-out and setting: next, `CS(=O)(=O)c1ccc(Oc2c(C3CCC3)ccc(-c3cnc(N)cn3)c2F)cc1` [Example 116, 5-{4-Cyclobutyl-2-fluoro-3-[4-(methylsulfonyl)phenoxy]phenyl}pyrazin-2-amine]: 503 nM; `N#Cc1ccnc(Oc2c(C3CCC3)ccc(-c3cnc(N)cn3)c2F)n1` [Example 92, 2-[3-(5-Aminopyrazin-2-yl)-6-cyclobutyl-2-fluorophenoxy]pyrimidine-4-carbonitrile]: 6660 nM. With `N#Cc1nc(-c2ccc(C3CCC3)c(O)c2F)cnc1N` [Example 222, 3-amino-6-(4-cyclobutyl-2-fluoro-3-hydroxyphenyl)pyrazine-2-carbonitrile], the IC50 in test [1] turned out to be 3480 nM.

Turning to `COC(=O)c1ccc(O)c(NC(=O)COc2c(C3CCC3)ccc(-c3cnc(N)cn3)c2F)c1` [Example 275, Methyl 3-({[3-(5-aminopyrazin-2-yl)-6-cyclobutyl-2-fluorophenoxy]acetyl}amino)-4-hydroxybenzoate], the IC50 in test [1] is 1960 nM. Still for that read-out and setting: the same measure for `N#Cc1ccc(Oc2c(C3CCC3)ccc(-c3cnc(N)cn3)c2F)nc1` [Example 114, 6-[3-(5-Aminopyrazin-2-yl)-6-cyclobutyl-2-fluorophenoxy]pyridine-3-carbonitrile]: 375 nM; for “2-[3-(Benzyloxy)-4-cyclobutyl-2- fluorophenyl]-5H-pyrrolo[2,3-b]pyrazine [Example 177]”: 771 nM. As to `Nc1cnc(-c2ccc(C3CCC3)c(OCc3cc(S(F)(F)(F)(F)F)ccc3F)c2F)cn1` [Example 77, 5-(4-Cyclobutyl-2-fluoro-3-{[2-fluoro-5-(pentafluoro-lambda~6~- sulfanyl)benzyl]oxy}phenyl)pyrazin-2-amine], in test [1], the IC50 was 1380 nM. Same read-out and setting: the same measure for `COc1cc(Oc2c(C3CCC3)ccc(-c3cnc4[nH]ccc4c3)c2F)ncn1` [Example 228, 5-(4-cyclobutyl-2-fluoro-3-((6-methoxypyrimidin-4-yl)oxy)phenyl)-1H-pyrrolo[2,3-b]pyridine]: 480 nM. On the same count and under the same terms, next, `NC(=O)c1ccc(Oc2c(C3CCC3)ccc(-c3cnc(N)cn3)c2F)cc1` [Example 155, 4-[3-(5-Aminopyrazin-2-yl)-6-cyclobutyl-2-fluorophenoxy]benzamide]: 170 nM; `Nc1cnc(-c2ccc(C3CCC3)c(OCC(O)Cn3cccn3)c2F)cn1` (racemic) [Example 60, racemic 1-(3-(5-Aminopyrazin-2-yl)-6-cyclobutyl-2-fluorophenoxy)-3-(1H-pyrazol-1-yl)propan-2-ol]: 732 nM; `Nc1cnc(-c2ccc(C3CCC3)c(OCc3ccc(C(=O)O)o3)c2F)cn1` [Example 85, 5-{[3-(5-Aminopyrazin-2-yl)-6-cyclobutyl-2-fluorophenoxy]methyl}furan-2-carboxylic acid]: 10000 nM. Still for that read-out and setting: next, `Nc1cnc(-c2ccc(C3CCC3)c(Oc3cnc4cc(F)c(F)cc4n3)c2F)cn1` [Example 271, 5-{4-Cyclobutyl-3-[(6,7-difluoroquinoxalin-2-yl)oxy]-2-fluorophenyl}pyrazin-2-amine]: 85.3 nM. For the compound `CC(C)(C)OC(=O)COc1c(C2CCC2)ccc(-c2cnc(N)cn2)c1F` [Example 49, tert-Butyl [3-(5-aminopyrazin-2-yl)-6-cyclobutyl-2-fluorophenoxy]acetate], the IC50 in test [1] is 1150 nM. Same read-out and setting: next, `CC(C)(C)c1ccc(-c2cnc(N)cn2)c(F)c1Oc1cc(N)ncn1` [Example 202, 6-[3-(5-Aminopyrazin-2-yl)-6-tert-butyl-2-fluorophenoxy]pyrimidin-4-amine]: 80.5 nM; `Nc1cnc(-c2ccc(C3CCC3)c(OCC(O)CNc3ccn[nH]3)c2F)cn1` (racemic) [Example 67, racemic 1-((1H-Pyrazol-5-yl)amino)-3-(3-(5-aminopyrazin-2-yl)-6-cyclobutyl-2-fluorophenoxy)propan-2-ol]: 727 nM. Same read-out and setting: the same measure for `N#Cc1cnn(CC(O)COc2c(C3CCC3)ccc(-c3cnc(N)cn3)c2F)c1N` (racemic) [Example 65, racemic 5-Amino-1-(3-(3-(5-aminopyrazin-2-yl)-6-cyclobutyl-2-fluorophenoxy)-2-hydroxypropyl)-1H-pyrazole-4-carbonitrile]: 107 nM; for `CC(C)(C)OC(=O)N1CCC(COc2c(C3CCC3)ccc(-c3cnc(N)cn3)c2F)C1` (stereo not drawn) [Example 247, tert-butyl 3-((3-(5-aminopyrazin-2-yl)-6-cyclobutyl-2-fluoro-phenoxy)methyl)pyrrolidine-1-carboxylate]: 417 nM. The same measure, in the same setting: next, `CCOC(=O)c1ccc(COc2c(C3CCC3)ccc(-c3cnc(N)cn3)c2F)o1` [Example 73, Ethyl 5-{[3-(5-aminopyrazin-2-yl)-6-cyclobutyl-2-fluorophenoxy]methyl}furan-2-carboxylate]: 1020 nM; `Nc1cnc(-c2ccc(C3CCC3)c(OCC(O)CNc3ncccn3)c2F)cn1` (racemic) [Example 56, racemic 1-(3-(5-Aminopyrazin-2-yl)-6-cyclobutyl-2-fluorophenoxy)-3-(pyrimidin-2-ylamino)propan-2-ol]: 644 nM. On to `Nc1cnc(-c2ccc(C3CCC3)c(Oc3nc4ncccc4s3)c2F)cn1` [Example 330, 5-(4-Cyclobutyl-2-fluoro-3-(thiazolo[4,5-b]pyridin-2-yloxy)phenyl)pyrazin-2-amine], for which, in test [1], the 50% inhibitory concentration (IC50) was over 1000 nM.
